Measurements: patent US8809278B2, “Cyclic tetrapeptides” (University of Kansas, priority 2008, dated 2014)
“Also recorded” adds a separate entry of the source. Like-named read-outs stand apart in the source and are kept apart here. Where a SMILES comes first, the peptide text is derived from it.

Tests used:
C57B1/6J mice [1] = experiment: 55° C. warm-water tail-withdrawal assay, agonist (antinociceptive) activity; format: in vivo, mouse; conditions: for agonist activity in the 55° C. warm water tail withdrawal assay: i.c.v. administration; for pattern of opioid activity in vivo: tail-withdrawal assay
Method: (§1) An antinociceptive (analgesic) assay was performed to test the KOR agonist activity of cyclic tetrapeptides cyclo[Trp-Phe-D-Pro-Phe] […] After determining baseline tail-withdrawal latencies, mice received a single intracerebroventricular (i.c.v.) dose of vehicle (artificial cerebrospinal fluid, 146 mM NaCl, 2.7 mM KCl, 1.2 mM, CaCl2, 1.0 mM MgCl2) or a dose of test compound i.c.v. and the tail-withdrawal latency was again measured. For i.c.v. injections, each mouse was lightly anesthetized with isoflurane, an incision was made in the scalp, and the injection was made 2 mm lateral and 2 mm caudal to bregma at a depth of 3 mm directly into the lateral ventricle, as detailed previously (McLaughlin et al., 1999). The volume of these injections was 5 μl, using a 10-μl Hamilton microliter syringe. Reference agonists and antagonists were administered either subcutaneously (s.c.) or interperitoneally (i.p.) in 0.9% saline at the doses and times indicated in the figure legends (negative numbers indicate time prior to tail-withdrawal assay).

κ opioid receptors (KOR) = format: binding; conditions: for Ki: [3H]diprenorphine
Method: (§2) Opioid receptor affinities were determined for the cyclic tetrapeptides using Chinese hamster ovary cells stably expressing κ, μ and δ opioid receptors, and their efficacies at κ opioid receptors were determined in the adenylyl cyclase assay as previously described (Arttamangkul, et al., J. Med. Chem. 1997, 40, 1211-1218; Soderstrom, et al., Eur. J. Pharmacol. 1997, 338, 191-197). [^3H]Diprenorphine, [^3H][D-Ala^2,NMePhe^4,glyol]enkephalin and [^3H]cyclo[D-Pen^2,D-Pen^5]enkephalin were used as the radioligands in the binding assays for κ, μ and δ opioid receptors, respectively. In the adenylyl cyclase assay, the efficacies were determined by measuring the inhibition of adenylyl cyclase by 10 μM of the peptides relative to dynorphin A-(1-13) amide (100%).
(§3) The study was done using [^3H]diprenorphine, [^3][D-Ala^2,NMePhe^4,glyol]enkephalin and [^3H]cyclo[D-Pen^2,D-Pen^5]enkephalin binding to CHO membranes expressing KOR, MOR and DOR, respectively.

κ opioid receptors = target: T1, κ opioid receptors (Rattus norvegicus, UniProt P34975); experiment: Adenylyl cyclase assay (efficacy at κ opioid receptors); format: cell-based; conditions: 10 μM peptide; relative to dynorphin A-(1-13) amide (100%)
T1 construct: expressed in transfected cells
Method: as §2

δ opioid receptors (DOR) = target: T2, δ opioid receptors (DOR) (Mus musculus, UniProt P32300); experiment: Radioligand binding, δ opioid receptor, CHO cells ([3H]cyclo[D-Pen2,D-Pen5]enkephalin)
T2 construct: expressed in transfected cells
Method: as §2, §3

μ opioid receptors (MOR) = target: T3, μ opioid receptors (MOR) (Rattus norvegicus, UniProt P33535); experiment: Radioligand binding, μ opioid receptor, CHO cells ([3H][D-Ala2,NMePhe4,glyol]enkephalin)
T3 construct: expressed in transfected cells
Method: as §2, §3

KOR = target: T4, KOR (Mus musculus, UniProt P33534); experiment: 55° C. warm-water tail-withdrawal assay, antagonism of the KOR selective agonist U50,488; format: in vivo; conditions: for duration of KOR antagonist activity: mice, tail-withdrawal assay; for antagonism of the KOR selective agonist U50,488: tested 2-2.5 hours after peptide administration, i.c.v.
T4 construct: from tissue; host or cells: living C57Bl/6J mice (in vivo)
Method: as §1
The ability of the cyclic tetrapeptides to function as KOR antagonists were studied by assessing the ability to antagonize the KOR selective agonist U50,488. […] Briefly, the antagonistic activity was tested 2-2.5 hours after peptide administration.
The duration of KOR antagonism of the cyclic tetrapeptides was studied.

[2] = tested on: kappa-opioid receptor (KOR); conditions: literature reports; cited from earlier work
DOR = target: T5, DOR (Mus musculus, UniProt P32300); experiment: 55° C. warm-water tail-withdrawal assay, antagonism of the DOR selective agonist SNC-80; format: in vivo; conditions: mice
T5 construct: from tissue; host or cells: living C57Bl/6J mice (in vivo)
Method: as §1
(§4) The ability of JVA-2802 to selectively antagonize an opioid receptor was studied. Briefly, the antagonistic activity of JVA-2802 was studied for MOR, DOR, and KOR activity by the ability to antagonize the MOR selective agonist morphine, the DOR selective agonist SNC-80, and the KOR selective agonist U50,488.

C57B1/6J mice [3] = experiment: Stress-induced reinstatement of cocaine conditioned place preference; format: in vivo, mouse; conditions: 3 nmol i.c.v. 40 minutes prior to forced swim stress
Method: The establishment of cocaine conditioned place preference (CPP), extinction and stress-induced reinstatement of cocaine CPP were preformed in C57B1/6J mice as previously described (Carey, A. N.; Borozny, K.; Aldrich, J. V.; McLaughlin, J. P. Reinstatement of cocaine place-conditioning prevented by the peptide kappa-opioid receptor antagonist arodyn. Eur. J. Pharmacol. 2007, 569, 84-89). […] Place conditioning subsequently began immediately following cocaine administration (10 mg/kg s.c), whereupon mice were consistently confined for 30 min in the appropriate compartment in the CPP apparatus. Conditioning with assay vehicle (0.9% saline) followed 4 hours later in a similar manner, but paired to the opposite chamber. This conditioning cycle was repeated once on each of four days. On the fifth day, mice were again allowed to freely move through the apparatus. […]
One group of animals was then subjected to a 2-day forced swim stress protocol (with a single long swim (15 minutes) on day 1, and a series of four 6-minutes trials on day 2) to produce reinstatement of cocaine CPP. […] One hour after the final exposure to forced swim stress, the place preference responses of the mice were determined as described above to determine possible reinstatement of cocaine CPP (FIG. 6, middle panel). […]

MOR = target: T6, MOR (Mus musculus, UniProt P42866); experiment: 55° C. warm-water tail-withdrawal assay, antagonism of the MOR selective agonist morphine; format: in vivo; conditions: mice
T6 construct: from tissue; host or cells: living C57Bl/6J mice (in vivo)
Method: as §1, §4

KOR in mouse brain = target: T7, KOR in mouse brain (Mus musculus, UniProt P33534); experiment: Affinity for KOR in mouse brain; format: binding
T7 construct: from tissue; host or cells: mouse brain

[4] = CHO cells stably expressing κ receptors, (n) in brackets, read-out: Ki (nM ± SEM) κ
[5] = CHO cells stably expressing δ receptors, (n) in brackets, read-out: Ki (nM ± SEM) δ
[6] = CHO cells stably expressing μ receptors, (n) in brackets, read-out: Ki (nM ± SEM) μ
[7] = CHO membranes expressing KOR, read-out: KOR Ki
[8] = CHO membranes expressing DOR, read-out: DOR Ki
[9] = CHO membranes expressing MOR, read-out: MOR Ki

T3 sequence (P33535 whole entry): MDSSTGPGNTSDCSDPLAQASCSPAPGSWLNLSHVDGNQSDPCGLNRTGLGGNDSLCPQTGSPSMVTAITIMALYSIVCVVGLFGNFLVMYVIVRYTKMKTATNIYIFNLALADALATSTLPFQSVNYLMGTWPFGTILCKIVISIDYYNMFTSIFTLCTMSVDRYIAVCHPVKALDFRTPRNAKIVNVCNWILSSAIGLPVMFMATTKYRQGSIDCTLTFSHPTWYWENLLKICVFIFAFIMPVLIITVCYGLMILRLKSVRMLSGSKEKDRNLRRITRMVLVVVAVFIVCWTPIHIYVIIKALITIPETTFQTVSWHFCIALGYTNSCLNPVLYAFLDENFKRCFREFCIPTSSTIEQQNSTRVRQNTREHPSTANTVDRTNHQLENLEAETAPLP
T4 sequence (P33534 whole entry): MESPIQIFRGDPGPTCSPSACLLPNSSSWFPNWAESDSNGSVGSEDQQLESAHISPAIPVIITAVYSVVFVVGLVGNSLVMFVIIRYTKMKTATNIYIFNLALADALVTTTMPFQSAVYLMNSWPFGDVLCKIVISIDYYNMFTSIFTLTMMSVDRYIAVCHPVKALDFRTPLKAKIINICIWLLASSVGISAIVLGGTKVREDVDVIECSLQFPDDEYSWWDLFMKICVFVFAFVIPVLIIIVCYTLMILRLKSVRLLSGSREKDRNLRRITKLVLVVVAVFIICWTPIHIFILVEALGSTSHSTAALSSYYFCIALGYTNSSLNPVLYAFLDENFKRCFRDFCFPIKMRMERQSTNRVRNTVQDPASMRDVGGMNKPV
T2 sequence (P32300 whole entry): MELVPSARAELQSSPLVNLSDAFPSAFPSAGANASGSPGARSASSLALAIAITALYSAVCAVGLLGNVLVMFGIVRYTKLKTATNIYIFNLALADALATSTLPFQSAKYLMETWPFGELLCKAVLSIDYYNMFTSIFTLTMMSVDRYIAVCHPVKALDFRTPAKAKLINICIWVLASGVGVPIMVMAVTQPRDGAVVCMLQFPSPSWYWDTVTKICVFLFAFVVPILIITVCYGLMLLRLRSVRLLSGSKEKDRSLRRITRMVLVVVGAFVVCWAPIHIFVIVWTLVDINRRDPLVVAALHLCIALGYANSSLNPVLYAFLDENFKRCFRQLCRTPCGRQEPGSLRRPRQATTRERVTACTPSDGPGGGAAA
T1 sequence (P34975 whole entry): as the sequence (P33534 whole entry) above, with D11E, S17A, S51P, A308V counted along it
T7 sequence (P33534 whole entry): as the sequence (P33534 whole entry) above
T5 sequence (P32300 whole entry): as the sequence (P32300 whole entry) above
T6 sequence (P42866 whole entry): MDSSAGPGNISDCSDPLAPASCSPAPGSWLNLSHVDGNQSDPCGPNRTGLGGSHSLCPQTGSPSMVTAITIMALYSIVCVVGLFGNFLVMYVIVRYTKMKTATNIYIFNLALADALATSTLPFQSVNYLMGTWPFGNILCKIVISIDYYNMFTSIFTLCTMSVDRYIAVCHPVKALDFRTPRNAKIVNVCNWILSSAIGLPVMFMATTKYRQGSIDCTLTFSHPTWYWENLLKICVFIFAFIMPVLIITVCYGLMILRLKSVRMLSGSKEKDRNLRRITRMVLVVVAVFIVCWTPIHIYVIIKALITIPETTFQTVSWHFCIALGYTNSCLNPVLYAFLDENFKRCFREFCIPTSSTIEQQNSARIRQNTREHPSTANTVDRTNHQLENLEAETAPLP

SMILES | agonist activity in the 55° C. warm water tail withdrawal assay (C57B1/6J mice [1]) | Ki (κ opioid receptors (KOR); [4]) [nM] | Cyclase screen (% control) (κ opioid receptors) [%] | Ki (δ opioid receptors (DOR); [5]) [nM] | Ki (μ opioid receptors (MOR); [6]) [nM] | duration of KOR antagonist activity (KOR) | antagonism of the KOR selective agonist U50,488 (KOR) | Ki (κ opioid receptors (KOR); [7]) [nM] | Ki (δ opioid receptors (DOR); [8]) [nM] | Ki (μ opioid receptors (MOR); [9]) [nM] | other results
C[C@@H]1NC(=O)[C@H](Cc2c[nH]c3ccccc23)NC(=O)[C@H](Cc2ccccc2)NC(=O)[C@H]2CCCN2C1=O [JVA-2803, cyclo[Trp-Ala-D-Pro-Phe]] (HELM PEPTIDE1{A.[dP].F.W}$PEPTIDE1,PEPTIDE1,1:R1-4:R2$$$V2.0) | can function as agonists; also recorded: more potent than JVA-2801 | 8.03 ± 1.67 | 122 | 8680 ± 1270 | 32.1 ± 3.9 | less than a day | more potent than JVA-2801 | – | – | – | pattern of opioid activity in vivo (C57B1/6J mice [1]): exhibit both agonist activity and KOR antagonist activity; fold higher KOR affinity than the parent peptide (κ opioid receptors (KOR); relative to parent (Phe) peptide / CJ-15,208): 4 fold; fold higher MOR affinity than JVA-2801 (μ opioid receptors (MOR); relative to JVA-2801): 19 fold; antagonism of the KOR selective agonist U50,488 (KOR; listed as 2803): exhibits KOR antagonist activity
C[C@@H]1NC(=O)[C@H]2CCCN2C(=O)[C@H](Cc2ccccc2)NC(=O)[C@@H](Cc2c[nH]c3ccccc23)NC1=O [JVA 3004] (HELM PEPTIDE1{A.[dW].F.[dP]}$PEPTIDE1,PEPTIDE1,1:R1-4:R2$$$V2.0) | – | – | – | – | – | – | – | 169 | 18000 | 186 | –
C[C@@H]1C(=O)N[C@@H](Cc2ccccc2)C(=O)N[C@H](Cc2c[nH]c3ccccc23)C(=O)N[C@@H](Cc2ccccc2)C(=O)N1C [JVA 3001] (HELM PEPTIDE1{F.[C[C@H](C(=O)[*:2])N(C)[*:1]].F.[dW]}$PEPTIDE1,PEPTIDE1,1:R1-4:R2$$$V2.0) | – | – | – | – | – | – | – | 68.9 | 5690 | 58.1 | –
CC(C)[C@@H](CN1CC[C@@](C)(c2cccc(O)c2)[C@@H](C)C1)NC(=O)[C@H]1Cc2ccc(O)cc2CN1 [JDTic] | – | – | – | – | – | – | – | – | – | – | stress-induced reinstatement of cocaine-seeking behavior [2]: block stress-induced reinstatement
C[C@@H]1NC(=O)[C@@H](Cc2c[nH]c3ccccc23)NC(=O)[C@H](Cc2ccccc2)NC(=O)[C@H]2CCCN2C1=O [JVA-3003, cyclo[D-Trp-Ala-D-Pro-Phe]] (HELM PEPTIDE1{A.[dP].F.[dW]}$PEPTIDE1,PEPTIDE1,1:R1-4:R2$$$V2.0) | can function as an agonist; also recorded: robust agonist activity | 3.15 ± 0.41 | 75 | 8330 ± 1220 | – | less than a day | exhibits KOR antagonist activity | 2.81 | 833 | 27.3 | pattern of opioid activity in vivo (C57B1/6J mice [1]): exhibits a pattern similar to the L-Trp peptides
C[C@H]1NC(=O)[C@H](Cc2ccccc2)NC(=O)[C@H]2CCCN2C(=O)[C@H](Cc2ccccc2)NC1=O [JVA 3002] | – | – | – | – | – | – | – | 1250 | 11000 | 774 | –
O=C1N[C@H](Cc2c[nH]c3ccccc23)C(=O)N[C@@H](Cc2ccccc2)C(=O)N2CCC[C@@H]2C(=O)N[C@H]1Cc1ccccc1 [JVA-2802, cyclo[D-Trp-Phe-D-Pro-Phe]] (HELM PEPTIDE1{F.[dP].F.[dW]}$PEPTIDE1,PEPTIDE1,1:R1-4:R2$$$V2.0) | did not show any agonist activity; also recorded: did not exhibit any agonist activity | 30.6 ± 3.4 | 127 | 2910 ± 1350 | 259 ± 29 | less than a day | dose-dependent antagonism | – | – | – | antagonism of the DOR selective agonist SNC-80 (DOR): does not antagonize; stress-induced reinstatement of cocaine conditioned place preference (C57B1/6J mice [3]): blocks stress-induced reinstatement; antagonism of the MOR selective agonist morphine (MOR): does not antagonize
O=C1N[C@@H](Cc2ccccc2)C(=O)N2CCC[C@@H]2C(=O)N[C@@H](Cc2ccccc2)C(=O)N[C@H]1Cc1c[nH]c2ccccc12 [JVA-2801, cyclo[Trp-Phe-D-Pro-Phe]] (HELM PEPTIDE1{F.W.F.[dP]}$PEPTIDE1,PEPTIDE1,1:R1-4:R2$$$V2.0) | can function as agonists; also recorded: robust agonist activity | 35.4 ± 3.6 | 119 | 4150 ± 3020 | 619 ± 87 | – | dose-dependent antagonism | – | – | – | reversal of agonist activity by the KOR selective antagonist nor-BNI (C57B1/6J mice [1]; i.c.v. peptide): partially reversed; reversal of agonist activity by the MOR selective antagonist β-FNA (C57B1/6J mice [1]; i.c.v. peptide): completely reversed; Ki (KOR in mouse brain): ~0.021 µM
